Test results as given in patent publication US5185349A, “Substituted amide ACAT inhibitors lactone derivatives” (priority 1991, dated 1993).
Counter-ions that a name gives are not always drawn.

Target: T1, acyl-CoA: cholesterol acyltransferase (ACAT) (Oryctolagus cuniculus, UniProt G1SFD9)
T1 construct: in a tissue preparation containing rabbit intestinal microsomes; from tissue; host or cells: rabbit intestine, microsomes
T1 sequence (G1SFD9 1-524): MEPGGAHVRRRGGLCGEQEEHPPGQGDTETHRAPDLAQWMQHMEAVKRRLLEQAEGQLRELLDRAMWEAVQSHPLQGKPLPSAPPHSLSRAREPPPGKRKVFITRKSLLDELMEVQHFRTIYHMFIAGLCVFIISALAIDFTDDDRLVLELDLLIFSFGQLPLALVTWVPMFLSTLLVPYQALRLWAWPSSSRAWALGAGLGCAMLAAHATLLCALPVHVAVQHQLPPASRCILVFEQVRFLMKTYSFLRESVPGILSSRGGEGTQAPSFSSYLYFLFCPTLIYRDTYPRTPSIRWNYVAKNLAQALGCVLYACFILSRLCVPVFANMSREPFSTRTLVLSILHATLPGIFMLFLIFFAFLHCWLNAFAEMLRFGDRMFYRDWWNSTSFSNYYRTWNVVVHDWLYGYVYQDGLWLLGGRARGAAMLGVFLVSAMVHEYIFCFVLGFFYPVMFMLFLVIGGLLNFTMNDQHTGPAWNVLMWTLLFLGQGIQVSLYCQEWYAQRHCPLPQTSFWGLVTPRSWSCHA
Experiment: in vitro ACAT inhibition test (radiolabeled cholesterol oleate formed from radiolabeled oleic acid, rabbit intestinal microsomes)
Assay type: biochemical
Details: concentration required to inhibit the activity of the enzyme by 50%
Experimental: The ability of representative compounds of the present invention to inhibit ACAT was measured using an in vitro test more fully described in F. J. Field and R. G. Salone, Biochemica et Biophysica 712:557-570 (1982). The test assesses the ability of a test compound to inhibit the acylation of cholesterol by oleic acid by measuring the amount of radiolabeled cholesterol oleate formed from radiolabeled oleic acid in a tissue preparation containing rabbit intestinal microsomes.
The data appear in Table 1 where they are expressed as IC50 values; i.e., the concentration of test compound required to inhibit the activity of the enzyme by 50%.

SMILES	IC50
CC(C)c1cccc(C(C)C)c1NC(=O)C1CC(c2ccc(F)cc2)OC1=O (centres unmarked) [Example 1, N-[2,6-bis(1-methylethyl)phenyl]-5-(4-fluorophenyl)tetrahydro-2-oxo-3-furancarboxamide]	587 nM
CCCCCCC1CCC(C(=O)Nc2c(C(C)C)cccc2C(C)C)C(=O)O1 (centres unmarked) [Example 3, N-[2,6-bis(1-methylethyl)phenyl]-6-hexyltetrahydro-2-oxo-2H-pyran-3-carboxamide]	404 nM
CC(C)c1cccc(C(C)C)c1NC(=O)C(CC(O)c1ccc(F)cc1)C(=O)O (stereo not drawn) [Example 7, γ-[2,6-bis(1-methylethyl)phenyl]-amino]carbonyl]-4-fluoro-α-hydroxybenzenebutanoic acid monosodium salt]	1330 nM

Molecules with a lower IC50, results first:

IC50	SMILES
336 nM	CCCCCCCC1CCC(C(=O)Nc2c(C(C)C)cccc2C(C)C)C(=O)O1 (centres unmarked) [Example 4, N-[2,6-bis(1-methylethyl)phenyl]-6-heptyltetrahydro-2-oxo-2H-pyran-3-carboxamide]
260 nM	CCCCCCCC1CC(C(=O)Nc2c(C(C)C)cccc2C(C)C)C(=O)O1 (centres unmarked) [Example 2, N-[2,6-bis(1-methylethyl)phenyl]-5-heptyltetrahydro-2-oxo-3-furancarboxamide]
